Measurements from patent US6800659B2, “Compounds for modulating cell proliferation” (HSC Research and Development Limited Partnership, priority 2000, dated 2004).
Each block holds one compound with its values, some of them ahead of it.

Tests used:
normal bone marrow cells [1] = test: CFU-GEMM assay: normal bone marrow differentiation in culture; format: cell-based; conditions: for inhibition of BFU-E colony formation: 20 μM
Protocol: (§1) The CFU-GEMM assay was performed according to Fauser and Messner (1978, Blood, 52(6) 143-8) and Messner and Fausser (1980, Blut, 41(5) 327-33) with some variations. In brief, heparinized bone marrow cells were layered over Percoll (1.077 gm/ml) (Pharmacia Fine Chemical, Piscataway N.J.) and centrifuged at 400 g at 4° C. for 10 minutes to remove neutrophils and RBCs. The fractionated BM cells at 2×10^5 cells/ml were cultured in IMDM (OCl, Toronto) containing 0.9% (vol/vol) methylcellulose supplemented with 30% FCS (Cansera Rexdale, ON.) or normal human plasma, a cocktail of cytokines containing G-CSF (10 ng/ml, Amgen), IL-3 (40 U/ml, Immunex), MGF (50 ng/ml, Immunex), Erythropoietin (2 u/ml, Epprex) or TPO (10 ng/ml, Amgen), 5×10^−5M β-2-mercaptoethanol and the specified concentration of CR4. The culture mixture was plated in 1 ml volumes into 35 mm petri dishes and incubated at 37° C., 5% CO2 in a humidified atmosphere. All cultures were evaluated at 14 days for the number of BFU-E colonies (defined as aggregates of more than 500 hemoglobinized cells or, 3 or more erythroid subcolonies), OFU-GM colonies (defined as granulocyte or monocyte-macrophage cells or both), CFU-Meg colonies (comprising 4 or more megakaryocytes) and CFU-GEMM colonies (a mixed population comprising of all elements).
as §1, with “1243-8)” for “143-8)”, “concentrations” for “concentration”, “CR19.” for “CR4.”, “hemaglobinized” for “hemoglobinized”, “subcolonies) and CFU-C” for “subcolonies), OFU-GM”, “both).” for “both), CFU-Meg colonies (comprising 4 or more megakaryocytes) and CFU-GEMM colonies (a mixed population comprising of all elements).”
as §1, with “1243-8)” for “143-8)”, “variations (British Journal of Haematology, 1992, 80, p40-48).” for “variations.”, “test compound.” for “CR4.”, “CO2,” for “CO2”, “subcolonies) and CFU-C” for “subcolonies), OFU-GM”, “both).” for “both), CFU-Meg colonies (comprising 4 or more megakaryocytes) and CFU-GEMM colonies (a mixed population comprising of all elements).”

[2] = tested on: Philadelphia positive acute lymphoblastic leukemia (Ph+ ALL) cells; test: Colony growth of Philadelphia positive ALL cells in methylcellulose culture; format: cell-based, human
Protocol: (§2) Ph+ ALL cells were plated in 1 ml volumes, in the absence of exogenous growth factors, into 35 mm petri dishes (Nunc, Gibco) containing alpha MEM (Gibco) plus 10% FCS (Cansera Rexdale, ON.) in 0.9% (vol/vol) methylcellulose (Fluka, Switzerland) with the indicated concentrations of CR4. Cultures were set at 37° C., 5% CO2 in a humidified atmosphere. Colonies consisting of more than 20 cells were counted at 12 days or earlier using an inverted microscope.
as §2, with “ALL” for “Ph+ ALL”, “20%” for “10%”, “and” for “with”, “compound” for “CR4.”, “atmosphere” for “atmosphere.”
as §2, with “ALL” for “Ph+ ALL”, “20%” for “10%”, “ON)” for “ON.)”, “0.90%” for “0.9%”, “and” for “with”, “compound.” for “CR4.”
as §2, with “ALL” for “Ph+ ALL”, “20%” for “10%”, “and” for “with”, “CR24.” for “CR4.”, “9” for “12”
as §2, with “ALL” for “Ph+ ALL”, “20%” for “10%”, “and” for “with”, “CR19.” for “CR4.”, “9” for “12”

[3] = tested on: acute lymphoblastic leukemia, Philadelphia positive ALL, acute myeloid leukemia, myeloma and B-lineage lymphoma; test: Growth of cancer cells in culture, summary over cell types; format: cell-based; conditions: for effectiveness against a variety of cell types (Acute Lymphoblastic Leukemia, Philadelphia positive Leukemia, Acute Myeloid Leukemia): in culture
[4] = tested on: Philadelphia positive ALL, AML and lymphoma; test: High dose in vitro (ex vivo) purging assays, summary; format: cell-based
From the text: […] Cancer cell death was effected by the induction of apoptosis. Accordingly, in another aspect of the invention, there is provided a method for killing cancer cells by ex vivo treatment of bone marrow from a patient with cancer with a compound of the invention, preferably CR4 and CR11 and then re-introducing the treated (or purged) bone marrow into the patient.

normal bone marrow cells [5] = test: In vitro purging of normal bone marrow, then colony assay; format: cell-based
Protocol: Heparinized bone marrow cells were layered over Percoll (1.077 gm/ml) (Pharmacia Fine Chemical, Piscataway N.J.) and centrifuged at 400 g at 4° C. for 10 minutes to remove neutrophils and RBCs.
For the purging process, the cells were resuspended at 1×10^6/ml in complete medium with or without 50 μM CR4. The cells were incubated with the CR4 for two and a half hours at 37° C., 5% CO2. At the end of this period the cells were thoroughly washed in medium to remove CR4 and then cultured at 2×10^5 cells/ml in IMDM (OCl, Toronto) containing 0.9% (vol/vol) methylcellulose supplemented with 30% FCS (Cansera Rexdale, ON.) or normal human plasma, a cocktail of cytokines containing G-CSF (10 ng/ml, Amgen), IL-3 (40 U/ml, Immunex), MGF (50 ng/ml, Immunex), Etryhropoietin (2 u/ml, Epprex) or TPO (10 ng/ml, Amgen) and 5×10^−5M b-2-mercaptoethanol. The culture mixture was plated in 1 ml volumes into 35 mm petri dishes and incubated at 37° C., 5% CO2 in a humidified atmosphere. All cultures were evaluated at 14 days for the number of BFU-E colonies (defined as aggregates of more than 500 hemaglobinized cells or, 3 or more erythroid subcolonies), CFU-C colonies (defined as granulocyte or monocyte-macrophage cells or both) and CFU-GEMM colonies (a mixed population comprising of all elements).
For the purging process, the cells were resuspended at 1×10^6/ml in complete medium with or without 50 μM CR11. The cells were incubated with the tryrphostin for seven hours at 37° C., 5% CO2. At the end of this period the cells were thoroughly washed in medium to remove CR11 and then cultured at 2×10^5 cells/ml in IMDM (OCl, Toronto) containing 0.9% (vol/vol) methylcellulose supplemented with 30% FCS (Cansera Rexdate, ON.) or normal human plasma, a cocktail of cytokines containing G-CSF (10 ng/ml, Amgen), IL-3 (40 U/ml, Immunex), MGF (50 ng/ml, Immunex), Erythropoietin (2 u/ml, Epprex) or TPO (10 ng/ml, Amgen) and 5×10^−5M β-2-mercaptoethanol. The culture mixture was plated in 1 ml volumes into 35 mm petri dishes and incubated at 37° C., 5% CO2 in a humidified atmosphere. All cultures were evaluated at 14 days for the number of BFU-E colonies (defined as aggregates of more than 500 hemoglobinized cells or, 3 or more erythroid subcolonies), CFU-C colonies (defined as granulocyte or monocyte-macrophage cells or both) and CFU-GEMM colonies (a mixed population comprising of all elements).

Ph+ ALL cells = test: In vitro purging of Philadelphia positive ALL with CR11; format: cell-based, human; conditions: 50 μM, 7 hours exposure (FIG. 22)
Protocol: For the purging assay, the cells were resuspended in complete medium with or without CR11 as indicated and incubated at 37° C., 5% CO2 for 0-7 hours. Cells were then washed thoroughly with medium to remove the CR11, resuspended and plated in 1 ml volumes, in the absence of exogenous growth factors, into 35 mm petri dishes (Nunc, Gibco) containing alpha MEM (Gibco) plus 20% FCS (Cansera Rexdale, ON.) in 0.9% (vol/vol) methylcellulose (Fluka, Switzerland). Cultures were set at 37° C., 5% CO2 in a humidified atmosphere. Colonies consisting of more than 20 cells were counted at 9 days or earlier using an inverted microscope.

[6] = low nanomolar doses, long term exposure

inhibition of bone marrow colony formation (normal bone marrow cells [1]; either 10 or 20 μM, 14 days (FIG. 13)): minimal inhibition
Structure (SMILES): COc1cc(/C=C/C=C(\C#N)C(=O)NCCO)cc(OC)c1O [CR24, (E,E)-2-(β-Ethanolaminocarbonyl)-3-(3,5-dimethoxy-4-hydroxystyryl)acrylonitrile]
inhibition of cell growth ([2]; between 2.5 and 5 μM, colonies at 9 days (FIG. 10)): virtually complete inhibition
effectiveness against Ph+ ALL cells ([2]; concentrations as low as 0.5 μM, colonies at 9 days (FIG. 10)): effective

inhibition of the development of BFU-E colonies (normal bone marrow cells [1]; 2.5 μM, 14 days (FIG. 12)): significant inhibition
BFU-E colonies (normal bone marrow cells [1]; 5 μM, 14 days (FIG. 12)): virtually absent
Structure (SMILES): N#C/C(=C\C=C\c1ccccc1)C(=O)NCc1ccc(O)c(O)c1 [CR19, (E,E)-2-(3,4-Dihydroxybenzylaminocarbonyl)-3-styrylacrylonitrile]
CFU-C colony formation (normal bone marrow cells [1]; 2.5 μM, 14 days (FIG. 12)): boosted
CFU-C colony formation (stimulatory effect) (normal bone marrow cells [1]; 5 μM, 14 days (FIG. 12)): stimulatory effect disappeared
normal cell growth and differentiation (normal bone marrow cells [1]; [6]): unaffected
effectiveness against Ph+ ALL cells ([2]; nanomolar concentrations, colonies at 9 days (FIG. 11)): highly effective
effectiveness against a variety of cell types (Acute Lymphoblastic Leukemia, Philadelphia positive Leukemia, Acute Myeloid Leukemia) [3]: highly effective
toxicity to cancer cells [3, 6]: highly toxic

BFU-E, CFU-GEMM and CFU-C colonies (normal bone marrow cells [5]; seven hours exposure to 50 μM (FIG. 21)): all normal
Structure (SMILES): COc1cc(/C=C/C=C(\C#N)C(=O)NCc2ccc(O)c(O)c2)cc(OC)c1O [CR11, (EE)-2-(3,4-Dihydroxybenzylaminocarbonyl)-3-(3,5-dimethoxy-4-hydroxystyryl)acrylonitrile]
effectiveness as ex vivo purging agents [4]: effective
inhibition of colony formation (normal bone marrow cells [5]; seven hours exposure to 50 μM, colonies at 14 days (FIG. 21)): did not result in any significant inhibition
effectiveness against a variety of cell types (Acute Lymphoblastic Leukemia, Philadelphia positive Leukemia, Acute Myeloid Leukemia) [3]: highly effective
killing of Ph+ ALL cells (Ph+ ALL cells): complete killing

inhibition of BFU-E colony formation (normal bone marrow cells [1]; 14 days (FIG. 13)): caused inhibition
Structure (SMILES): N#C/C(=C\C=C\c1ccc(O)c(O)c1)C(=O)NCc1ccc(O)c(O)c1 [CR21, (E,E)-2(3,4-Dihydroxybenzylaminocarbonyl)-3-(3,4-dihydroxystyryl)acrylonitrile]
inhibition of cell growth ([2]; 5 μM, Example 42, FIG. 8): inhibited cell growth
inhibition of cell growth ([2]; 1-2.5 μM, Example 43, FIG. 9): significant inhibition

inhibition of BFU-E colony formation (normal bone marrow cells [1]; 14 days (FIG. 13)): caused inhibition
Structure (SMILES): N#C/C(=C\C=C\c1ccc(O)c(O)c1)C(N)=O [CR17, (E,E)-2-Aminocarbonyl-3-(3,4-dihydroxystyryl)acrylonitrile]
inhibition of cell growth ([2]; 1-2.5 μM, Example 42, FIG. 8): significant inhibition
inhibition of cell growth ([2]; 1-2.5 μM, Example 43, FIG. 9): significant inhibition
